Data: ChEMBL document CHEMBL1201862, “PubChem BioAssay data set” (2004)
Values belong to the compound of their own block, whether it stands above or below them. Calls of active or inactive are those of the source.

Assays:
BJ [1] = assay: cytotoxicity toward BJ-TERT fibroblasts, dose response, cell-based, RAS-independent, luminescence (AID 1933); format: functional; conditions: Homo sapiens
BJ [2] = assay: cells; format: functional, cell-based; conditions: Homo sapiens
BJ [3] = assay: cytotoxicity toward BJ-TERT-LT-ST fibroblasts, dose response, cell-based, RAS-independent, luminescence (AID 1935); format: functional; conditions: Homo sapiens;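 also: BJ fibroblasts immortalized with TERT plus LT and ST oncogenes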
[4] = cytotoxicity toward DRD oncogenic fibroblasts, dose response, cell-based, non-viral oncogenic, luminescence (AID 1934); format: functional; conditions: Homo sapiens
[5] = cytotoxicity in HEK-293T cells, dose response, cytotoxicity control for TCR NF-kB inhibitor project, luminescence, T-cell screen hits (AID 489026); format: functional, cell-based;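 also: cells exposed to compound about 14 hours before the viability readout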
INS1 = assay: beta cell apoptosis inhibitors, cytokine rescue, dose response, luminescence, retest (AID 449756); format: functional, cell-based; conditions: Rattus norvegicus;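 also: cell death triggered by IL-1 beta plus TNF-alpha plus IFN-gamma mixture; protective hits raise ATP signal compared with cytokine alone wells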
[6] = Shn3 3'UTR reporter inhibitors, dose response, cell-based, Clone20 osteoblasts, firefly luciferase, cherry-picked (AID 624132); format: functional;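 also: firefly luciferase luminescence from reporter carrying the Shn3 3'UTR in osteoblasts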
[7] = HepG2 cell cytotoxicity, dose response, cytotoxicity control for Shn3 inhibitor project, CellTiter-Glo, cherry-picked (AID 624134); format: functional, cell-based
[8] = control 3'UTR Renilla luciferase suppression, dose response, counter-screen for Shn3 inhibitor project, cell-based, Clone20-Shn3RL, cherry-picked (AID 624133); format: functional
Galanin receptor type 3 = target: T1, Galanin receptor type 3 (Homo sapiens, UniProt O60755); assay: Fluorescence-based cell-based primary high throughput dose response assay to identify antagonists of the Galanin Receptor 3 (GalR3).; format: functional
T1 sequence (O60755 whole entry): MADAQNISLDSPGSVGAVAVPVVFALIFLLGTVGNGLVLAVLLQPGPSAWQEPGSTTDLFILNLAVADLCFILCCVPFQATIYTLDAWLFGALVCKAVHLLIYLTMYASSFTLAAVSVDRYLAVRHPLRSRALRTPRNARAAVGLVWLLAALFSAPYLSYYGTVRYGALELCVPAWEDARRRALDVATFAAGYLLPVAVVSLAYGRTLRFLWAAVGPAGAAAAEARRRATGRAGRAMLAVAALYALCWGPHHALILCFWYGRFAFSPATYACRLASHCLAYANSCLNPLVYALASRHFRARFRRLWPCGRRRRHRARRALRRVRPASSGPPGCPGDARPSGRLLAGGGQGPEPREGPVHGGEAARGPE

cells [9] = format: functional, cell-based; conditions: HEK-CNG
[10] = target: T2, DNA repair and recombination protein RAD54-like (Homo sapiens, UniProt Q92698); assay: inhibitors of human RAD54 branch migration, confirmation, biochemical, fluorescence, cherry-picked samples, dose series (AID 651657); format: functional
T2 sequence (Q92698 whole entry): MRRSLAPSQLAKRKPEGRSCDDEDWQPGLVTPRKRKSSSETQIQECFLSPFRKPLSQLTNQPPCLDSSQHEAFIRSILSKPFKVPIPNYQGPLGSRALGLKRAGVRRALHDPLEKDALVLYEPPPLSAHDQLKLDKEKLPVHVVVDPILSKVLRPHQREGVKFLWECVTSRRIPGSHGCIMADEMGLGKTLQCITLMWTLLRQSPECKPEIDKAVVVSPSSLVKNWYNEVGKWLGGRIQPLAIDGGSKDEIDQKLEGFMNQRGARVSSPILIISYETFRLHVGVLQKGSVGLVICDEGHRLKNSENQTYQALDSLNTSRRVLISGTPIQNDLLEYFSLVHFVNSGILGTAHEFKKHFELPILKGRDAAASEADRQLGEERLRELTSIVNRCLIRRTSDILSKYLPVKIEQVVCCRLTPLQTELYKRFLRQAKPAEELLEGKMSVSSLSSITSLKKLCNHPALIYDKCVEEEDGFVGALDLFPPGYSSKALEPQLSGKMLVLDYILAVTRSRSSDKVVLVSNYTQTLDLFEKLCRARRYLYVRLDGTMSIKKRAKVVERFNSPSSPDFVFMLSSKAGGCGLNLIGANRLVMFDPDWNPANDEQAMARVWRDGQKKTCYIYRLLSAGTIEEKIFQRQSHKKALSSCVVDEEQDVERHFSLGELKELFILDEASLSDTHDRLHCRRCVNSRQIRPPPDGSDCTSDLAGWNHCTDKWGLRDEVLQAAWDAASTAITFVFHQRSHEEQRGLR

[11] = inhibitors of intracellular T. cruzi replication, confirmation, NIH3T3 host cells, beta-gal luminescence (AID 2044); format: functional, cell-based;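 also: intracellular parasites grown in NIH/3T3 mouse fibroblasts as host cells; luminescent beta-galactosidase reporter signal from transgenic T. cruzi replicating inside host cells; inhibitors lower the luminescence signal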
[12] = cytotoxicity toward NIH3T3 fibroblasts, dose response, counter-screen, cell-based, ATP luminescence, mouse fibroblasts (AID 2010); format: functional;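 also: cells exposed to compound for about 90 hours before reading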
[13] = target: Photoreceptor-specific nuclear receptor (Homo sapiens, UniProt Q9Y5X4); format: functional, cell-based;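 also: CHO-S cells with Gal4-NCOR and VP16-NR2E3 two-hybrid luciferase reporter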
Sequence of Photoreceptor-specific nuclear receptor (Q9Y5X4 whole entry, the tested form may be a part): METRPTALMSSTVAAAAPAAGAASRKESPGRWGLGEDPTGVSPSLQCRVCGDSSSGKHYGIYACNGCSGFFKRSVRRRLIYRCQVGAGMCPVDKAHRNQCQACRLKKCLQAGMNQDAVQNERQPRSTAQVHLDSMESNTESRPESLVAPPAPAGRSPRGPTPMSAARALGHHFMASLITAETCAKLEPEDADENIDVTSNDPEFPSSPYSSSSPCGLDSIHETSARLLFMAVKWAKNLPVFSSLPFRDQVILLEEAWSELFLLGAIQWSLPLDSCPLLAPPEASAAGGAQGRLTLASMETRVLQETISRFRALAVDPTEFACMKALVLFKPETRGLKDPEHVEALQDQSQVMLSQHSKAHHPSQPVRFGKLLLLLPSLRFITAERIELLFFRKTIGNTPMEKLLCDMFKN

[14] = HEp-2 cell cytotoxicity, dose response, cytotoxicity control for RSV inhibitor project, HTS (AID 2410); format: functional; conditions: human respiratory syncytial virus
[15] = target: T3, Low molecular weight phosphotyrosine protein phosphatase (Homo sapiens, UniProt P24666); format: functional; conditions: read-out: IC50_Mean
T3 sequence (P24666 whole entry): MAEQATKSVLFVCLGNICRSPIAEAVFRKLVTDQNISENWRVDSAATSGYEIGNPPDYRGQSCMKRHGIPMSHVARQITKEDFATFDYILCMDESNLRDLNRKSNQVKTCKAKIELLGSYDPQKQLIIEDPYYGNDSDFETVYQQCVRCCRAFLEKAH

[16] = target: T3, Low molecular weight phosphotyrosine protein phosphatase; format: functional; conditions: read-out: IC50_Mean; remark: listed apart in the source
cells [17] = assay: cells
Aminopeptidase N = target: T4, Aminopeptidase N (Plasmodium falciparum FcB1/Columbia, UniProt O96935); assay: P. falciparum M1AAP inhibitors, biochemical, fluorogenic H-Leu-NHMec substrate, 1536-well (AID 1445); design: species or system Plasmodium falciparum 3D7, 3D7
T4 sequence (O96935 whole entry): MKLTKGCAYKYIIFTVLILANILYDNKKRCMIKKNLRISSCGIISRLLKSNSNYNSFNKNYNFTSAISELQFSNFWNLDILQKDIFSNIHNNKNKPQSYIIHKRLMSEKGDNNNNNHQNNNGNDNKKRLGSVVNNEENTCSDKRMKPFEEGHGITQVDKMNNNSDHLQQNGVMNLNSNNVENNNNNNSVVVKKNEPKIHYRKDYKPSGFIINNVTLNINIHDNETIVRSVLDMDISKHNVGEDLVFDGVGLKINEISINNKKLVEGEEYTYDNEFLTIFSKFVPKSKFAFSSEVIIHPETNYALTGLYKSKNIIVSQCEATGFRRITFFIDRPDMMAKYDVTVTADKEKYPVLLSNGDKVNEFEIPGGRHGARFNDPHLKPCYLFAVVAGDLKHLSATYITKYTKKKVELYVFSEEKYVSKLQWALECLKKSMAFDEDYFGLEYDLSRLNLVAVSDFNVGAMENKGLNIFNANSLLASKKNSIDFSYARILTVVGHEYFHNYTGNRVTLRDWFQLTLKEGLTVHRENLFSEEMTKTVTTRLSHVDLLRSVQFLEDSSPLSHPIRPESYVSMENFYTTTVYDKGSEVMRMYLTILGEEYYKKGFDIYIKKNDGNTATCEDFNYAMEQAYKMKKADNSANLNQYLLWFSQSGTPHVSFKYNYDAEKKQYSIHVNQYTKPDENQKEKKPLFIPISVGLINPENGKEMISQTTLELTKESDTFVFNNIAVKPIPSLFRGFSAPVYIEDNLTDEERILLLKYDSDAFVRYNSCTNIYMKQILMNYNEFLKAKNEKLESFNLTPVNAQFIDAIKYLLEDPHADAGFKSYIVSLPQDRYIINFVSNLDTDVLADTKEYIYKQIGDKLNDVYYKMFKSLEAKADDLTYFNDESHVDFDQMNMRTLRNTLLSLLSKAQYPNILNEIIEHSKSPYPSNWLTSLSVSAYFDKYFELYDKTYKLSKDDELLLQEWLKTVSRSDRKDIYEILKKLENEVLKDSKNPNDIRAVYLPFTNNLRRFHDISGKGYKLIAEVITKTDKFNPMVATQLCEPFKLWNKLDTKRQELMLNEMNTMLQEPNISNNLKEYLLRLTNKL

[18] = target: T5, High affinity choline transporter 1 (Homo sapiens, UniProt Q9GZV3); assay: CHT inhibitors, dose response, cell-based, 5-point CRC, membrane potential dye (AID 504840); format: functional
T5 sequence (Q9GZV3 whole entry): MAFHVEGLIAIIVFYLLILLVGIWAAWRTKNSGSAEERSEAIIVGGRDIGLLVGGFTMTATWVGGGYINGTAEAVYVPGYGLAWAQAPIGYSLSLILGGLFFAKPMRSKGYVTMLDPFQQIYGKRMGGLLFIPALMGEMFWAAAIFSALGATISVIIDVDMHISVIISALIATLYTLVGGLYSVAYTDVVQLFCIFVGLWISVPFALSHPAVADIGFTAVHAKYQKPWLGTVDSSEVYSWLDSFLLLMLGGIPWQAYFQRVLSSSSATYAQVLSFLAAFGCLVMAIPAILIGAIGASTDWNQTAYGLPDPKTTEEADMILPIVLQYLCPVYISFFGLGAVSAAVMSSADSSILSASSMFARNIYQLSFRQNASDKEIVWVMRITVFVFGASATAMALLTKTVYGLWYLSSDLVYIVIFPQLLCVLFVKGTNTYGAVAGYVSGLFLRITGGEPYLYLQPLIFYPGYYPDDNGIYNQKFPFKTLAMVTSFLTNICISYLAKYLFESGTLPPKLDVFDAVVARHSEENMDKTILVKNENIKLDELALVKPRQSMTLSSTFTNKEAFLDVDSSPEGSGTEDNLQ

[19] = target: T6, Corticotropin-releasing factor receptor 2/Corticotropin-releasing factor-binding protein (Homo sapiens, UniProt P24387+Q13324); assay: Dose Response confirmation of uHTS hits for small molecule antagonists of the CRF-binding protein and CRF-R2 receptor complex.; format: functional; conditions: read-out: IC50_Mean
T6 sequence (Q13324 whole entry): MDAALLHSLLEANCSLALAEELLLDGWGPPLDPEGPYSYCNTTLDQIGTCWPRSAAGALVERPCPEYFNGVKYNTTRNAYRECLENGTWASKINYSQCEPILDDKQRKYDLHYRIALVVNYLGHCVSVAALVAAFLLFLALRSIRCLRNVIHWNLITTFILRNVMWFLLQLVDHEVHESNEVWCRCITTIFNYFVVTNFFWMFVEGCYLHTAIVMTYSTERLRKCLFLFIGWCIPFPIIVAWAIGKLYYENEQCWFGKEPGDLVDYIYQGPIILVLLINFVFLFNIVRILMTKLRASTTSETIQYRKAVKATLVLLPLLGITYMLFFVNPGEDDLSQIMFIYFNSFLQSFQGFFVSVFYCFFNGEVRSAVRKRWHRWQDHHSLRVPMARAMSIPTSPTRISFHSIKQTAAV
T6 sequence (P24387 whole entry): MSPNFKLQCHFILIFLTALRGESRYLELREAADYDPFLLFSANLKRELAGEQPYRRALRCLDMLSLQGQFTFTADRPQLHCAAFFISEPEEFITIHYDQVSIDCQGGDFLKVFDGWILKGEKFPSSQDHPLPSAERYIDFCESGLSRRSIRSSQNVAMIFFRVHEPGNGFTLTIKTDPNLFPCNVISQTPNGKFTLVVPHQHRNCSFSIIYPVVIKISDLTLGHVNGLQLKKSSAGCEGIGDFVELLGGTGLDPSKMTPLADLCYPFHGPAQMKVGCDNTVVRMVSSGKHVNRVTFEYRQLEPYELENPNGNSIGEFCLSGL

[20] = target: T6, Corticotropin-releasing factor receptor 2/Corticotropin-releasing factor-binding protein; assay: activators of CRF receptor 2 with binding protein – uHTS hits, confirmation (AID 602473); format: functional; conditions: read-out: EC50_Mean
[21] = CRF-BP/CRF-R2 complex antagonists, dose response, cell-based, uHTS hits, 384-well (AID 651639); format: functional, Homo sapiens; conditions: read-out: IC50_Mean

Structure (SMILES): O=S(=O)(c1ccc2c(c1)OCCO2)N1CCN(c2ncnc3sccc23)CC1
EC50 (BJ [1]): > 150 µM (not active)
EC50 (BJ [2]): > 150 µM (not active)
EC50 (BJ [3]): > 150 µM (not active)
EC50 [4]: > 150 µM (not active)
IC50 [5]: > 80 µM (inactive)
AC50 (INS1): 3.37 µM (active)
AC50 [6]: 1.45 µM (active)
AC50 [7]: 3.21 µM (active)
AC50 [8]: 29.6 µM (active)
IC50 (Galanin receptor type 3): 2.06 µM (active)
EC50 (cells [9]): > 29.9 µM (inactive)

AC50 [10]: 95 µM (active)
Structure (SMILES): CCN1CCN(C(S)=Nc2ccc3nc(N4CCN(CC)CC4)cc(C)c3c2)CC1

Structure (SMILES): Cc1nn(Cc2cccc(F)c2)c(C)c1NC(=O)c1ccc(COc2ccccc2Cl)cc1
EC50 [11]: 1.26 µM (active)
EC50 [12]: 40.4 µM (active)
IC50 [13]: 2.85 µM (active)

Structure (SMILES): O=C(O)c1cccc(NC(=O)c2cn(-c3ccccc3)nc2-c2cc3ccccc3o2)c1
CC50 [14]: 33 µM (active)
IC50 [15]: 43 µM (inactive)
IC50 [16]: 18 µM (active)
IC50 (cells [17]): 20.9 µM (active)

IC50 (Aminopeptidase N): 69.4 µM (active)
IC50 [18]: 12.6 µM (active)
IC50 [19]: 5.71 µM (active)
EC50 [20]: 7.48 µM (active)
IC50 [21]: > 20 µM (inactive)
Structure (SMILES): O=C(Nc1cc(S(=O)(=O)N2CCCCC2)ccc1O)c1ccccc1NS(=O)(=O)c1ccc(F)c(F)c1
